The numbers were not newly measured in patent US20080063668A1, “Nitroimidazole and terconazole composition and method” (priority 2006, published 2008), which cites them from elsewhere.

For this data set the following is noted: neutral pH; cited from earlier work.

Where a name gives a salt, the structure may show the parent alone.

Take `CC(C)N1CCN(c2ccc(OCC3COC(Cn4cncn4)(c4ccc(Cl)cc4Cl)O3)cc2)CC1` (stereo not shown) [Terconazole hydrochloride]: the solubility in water result was “about 0.007 percent by weight”.
